Data set [1] deals with T1, human amylin 3(a) receptor (human calcitonin receptor + RAMP-3) (Homo sapiens, UniProt O60896+P30988).
T1 construct: expressed in transfected cells; CRE-luciferase reporter
T1 sequence (P30988 25-474): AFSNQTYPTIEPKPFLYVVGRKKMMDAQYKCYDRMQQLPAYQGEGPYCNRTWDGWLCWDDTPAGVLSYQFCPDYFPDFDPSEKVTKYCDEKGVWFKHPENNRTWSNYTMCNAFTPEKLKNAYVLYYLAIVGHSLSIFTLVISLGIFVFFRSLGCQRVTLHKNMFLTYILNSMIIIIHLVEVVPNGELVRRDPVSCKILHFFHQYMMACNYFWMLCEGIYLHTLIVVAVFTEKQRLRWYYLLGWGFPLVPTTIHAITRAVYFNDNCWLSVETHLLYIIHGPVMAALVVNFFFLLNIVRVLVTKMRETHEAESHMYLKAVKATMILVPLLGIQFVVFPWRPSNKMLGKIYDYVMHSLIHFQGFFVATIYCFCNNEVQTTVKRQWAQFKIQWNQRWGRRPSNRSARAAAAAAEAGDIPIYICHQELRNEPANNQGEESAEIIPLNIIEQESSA
T1 sequence (O60896 24-148 partner): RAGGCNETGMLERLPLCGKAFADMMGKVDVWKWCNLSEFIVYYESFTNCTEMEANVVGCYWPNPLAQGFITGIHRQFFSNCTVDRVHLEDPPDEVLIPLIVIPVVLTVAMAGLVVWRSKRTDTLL
Kind of data set: Assay (II)a functional assay, human amylin receptor (CRE luciferase reporter in BHK cells). It is filed as cell-based. To be noted: human amylin receptor. The text has this:
(§1) 1. Luciferase Assay Outline
(§2) Activation of calcitonin and amylin (coexpression of calcitonin receptor and receptor activity modifying proteins (RAMP)) receptors lead to increased intracellular concentrations of cAMP. Consequently, transcription is activated by promoters containing multiple copies of the cAMP response element (CRE). It is thus possible to measure amylin activity by the use of a CRE luciferase reporter gene introduced into BHK cells also expressing calcitonin or amylin receptors.
(§3) A BHK570 cell line was stably transfected with the human calcitonin receptor and a CRE-responsive luciferase reporter gene. The cell line was further transfected with RAMP-3, using standard methods. This turns the calcitonin receptor into an amylin 3(a) receptor. Methotrexate, Neomycin, and Hygromycin are selection markers for luciferase, the calcitonin receptor, and RAMP-3, respectively.
(§4) To perform activity assays, BHK calcitonin (a) receptor- or amylin 3(a)-receptor/CRE-luc cells were seeded in white 96 well culture plates at a density of about 20.000 cells/well. […] After incubation overnight at 37° C. and 5% CO2, the growth medium was replaced by 50 μl/well assay medium (DMEM (without phenol red), Glutamax™, 10% FBS, and 10 mM Hepes, pH 7.4). Further, 50 μl/well of standard or sample in assay buffer were added. After 3 hours incubation at 37° C. and 5% CO2, the assay medium with standard or sample were removed and replaced by 100 μl/well PBS. Further, 100 μl/well LucLite™ was added. The plates were sealed and incubated at room temperature for 30 minutes. Finally, luminescence was measured on a TopCounter (Packard) in SPC (single photon counting) mode.
(In general: In a reporter assay the amount or activity of a reporter protein is the signal.)

Data set [2] concerns the target T2, human calcitonin receptor (Homo sapiens, UniProt P30988).
T2 construct: expressed in transfected cells; CRE-luciferase reporter
T2 sequence (P30988 25-474): T1 sequence (P30988 25-474)
Kind of data set: Assay (II)a functional assay, human calcitonin receptor (CRE luciferase reporter in BHK cells). It is filed as cell-based.
Excerpt: as §1, §2, §3, §4

A short description of data set [3]: Assay (III) ThT fibrillation assay for physical stability. It is filed as physicochemical. The method, boiled down: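 Freshly prepared, pH-adjusted formulations with 1 μM ThT incubated at 37 °C under 960 rpm orbital shaking (1 mm), fluorescence (ex 444, em 485 nm) read every 20 min. […] Peptide content before and after measured by reverse-phase HPLC against pramlintide standard.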

The test system of another data set is ad libitum fed rat. Kind of data set: Assay (I) efficacy testing on appetite (food intake) using an ad libitum fed rat model. It is filed as in vivo, Sprague Dawley (SD) rats. The settings on record: 3 nmol/kg. The method, boiled down: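 Ad libitum fed Sprague Dawley rats, 200-250 g, singly housed on reversed light cycle, got one ip, po or sc dose of 0.01-3 mg/kg just before lights off; groups of 5-8 with vehicle control. Food intake recorded hourly for 7 h, then at 24 h and sometimes 48 h; Grubbs outliers excluded.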

This is an account of results in patent US8741836B2, “Polypeptides” (Novo Nordisk A/S, priority 2011, dated 2014).

Read-outs that look alike come from different tables or passages of the source. Starred links: 1 amine or outer side, 2 acyl side, 3 side chain; linkers in the order of their positions; H or OH if unused. Positions of bridges follow the written chain, without caps; N, C: chain ends. Residues, ends and D or L forms follow the SMILES beside them. Groups on a side chain read outwards from the residue. *: point of attachment. C20 diacid = O=C(O)CCCCCCCCCCCCCCCCCCC(=O)*; C18 diacid = O=C(O)CCCCCCCCCCCCCCCCC(=O)*; γGlu = O=C(O)[C@H](CCC(=O)[*:2])N[*:1]; AEEA = NCCOCCOCC(=O)O

Usually EC50 stands for the concentration giving half of the maximal effect.

With `CC[C@H](C)[C@H](NC(=O)[C@H](CCCCNC(=O)COCCOCCNC(=O)COCCOCCNC(=O)CC[C@H](NC(=O)CCCCCCCCCCCCCCCCC(=O)O)C(=O)O)NC(=O)CNC(=O)[C@H](Cc1ccccc1)NC(=O)[C@H](CC(N)=O)NC(=O)[C@H](CC(N)=O)NC(=O)[C@H](CO)NC(=O)[C@H](CO)NC(=O)[C@H](Cc1c[nH]cn1)NC(=O)[C@@H](NC(=O)[C@H](CC(C)C)NC(=O)[C@H](Cc1ccccc1)NC(=O)[C@H](CCC(=O)O)NC(=O)[C@H](C)NC(=O)[C@H](CC(C)C)NC(=O)[C@H](CCCNC(=N)N)NC(=O)[C@H](CCC(N)=O)NC(=O)[C@@H](NC(=O)[C@H](C)NC(=O)[C@@H]1CSSC[C@H](NC(=O)[C@@H](N)CCCCN)C(=O)N[C@@H](CC(N)=O)C(=O)N[C@@H]([C@@H](C)O)C(=O)N[C@@H](C)C(=O)N[C@@H]([C@@H](C)O)C(=O)N1)[C@@H](C)O)C(C)C)C(=O)N[C@@H](CC(C)C)C(=O)N1CCC[C@H]1C(=O)N1CCC[C@H]1C(=O)N[C@H](C(=O)N[C@@H](CC(N)=O)C(=O)N[C@H](C(=O)NCC(=O)N[C@@H](CO)C(=O)N[C@@H](CC(N)=O)C(=O)N[C@H](C(=O)N[C@@H](Cc1ccc(O)cc1)C(N)=O)[C@@H](C)O)C(C)C)[C@@H](C)O` [Example 126] (H-KCNTATCATQRLAEFLVHSSNNFGK([AEEA-AEEA-γGlu-C18 diacid])ILPPTNVGSNTY-NH2; disulfide 2-7 (inferred); N-terminus and C-terminus assumed), the EC50 in data set [1] (Table 11) was determined as 0.076 nM; in data set [2] (Table 11, human calcitonin receptor, read-out: CTa receptor human EC50) it was 0.101 nM.

For the compound `CC[C@H](C)[C@H](NC(=O)[C@@H]1CCCN1C(=O)CNC(=O)[C@H](CC(C)C)NC(=O)[C@H](CCC(=O)O)NC(=O)[C@H](CCC(N)=O)NC(=O)[C@@H](NC(=O)[C@H](C)NC(=O)[C@H](CCCNC(=N)N)NC(=O)[C@H](Cc1c[nH]cn1)NC(=O)[C@H](CC(C)C)NC(=O)[C@H](Cc1ccccc1)NC(=O)[C@H](CCC(=O)O)NC(=O)[C@H](C)NC(=O)[C@H](CC(C)C)NC(=O)[C@H](CCCNC(=N)N)NC(=O)[C@H](CCC(N)=O)NC(=O)[C@@H](NC(=O)[C@H](C)NC(=O)[C@@H]1CSSC[C@H](NC(=O)[C@H](Cc2c[nH]cn2)NC(=O)COCCOCCNC(=O)COCCOCCNC(=O)CC[C@H](NC(=O)CCCCCCCCCCCCCCCCCCC(=O)O)C(=O)O)C(=O)N[C@@H](CC(N)=O)C(=O)N[C@@H]([C@@H](C)O)C(=O)N[C@@H](C)C(=O)N[C@@H]([C@@H](C)O)C(=O)N1)[C@@H](C)O)[C@@H](C)O)C(=O)N[C@@H](CC(C)C)C(=O)N1CCC[C@H]1C(=O)N1CCC[C@H]1C(=O)N[C@H](C(=O)N[C@@H](CC(N)=O)C(=O)N[C@H](C(=O)NCC(=O)N[C@@H](CO)C(=O)N[C@@H](CC(N)=O)C(=O)N[C@H](C(=O)N[C@@H](Cc1ccc(O)cc1)C(N)=O)[C@@H](C)O)C(C)C)[C@@H](C)O` [Example 23] ({C20 diacid-γGlu-AEEA-AEEA}-HCNTATCATQRLAEFLHRATQELGPILPPTNVGSNTY-NH2; disulfide 2-7), the EC50 in data set [1] (Table 6) was 0.385 nM; in data set [2] (Table 7, human calcitonin (CTa) receptor), 0.492 nM.

Regarding `CC[C@H](C)[C@H](NC(=O)[C@@H]1CCCN1C(=O)CNC(=O)[C@H](Cc1ccccc1)NC(=O)[C@H](CC(N)=O)NC(=O)[C@H](CC(N)=O)NC(=O)[C@H](CO)NC(=O)[C@H](CO)NC(=O)[C@H](Cc1c[nH]cn1)NC(=O)[C@H](Cc1c[nH]cn1)NC(=O)[C@H](CC(C)C)NC(=O)[C@H](Cc1ccccc1)NC(=O)[C@H](CCC(=O)O)NC(=O)[C@H](C)NC(=O)[C@H](CC(C)C)NC(=O)[C@H](CCCNC(=N)N)NC(=O)[C@H](CCC(N)=O)NC(=O)[C@@H](NC(=O)[C@H](C)NC(=O)[C@@H]1CSSC[C@H](NC(=O)[C@H](CCCCN)NC(=O)CC[C@H](NC(=O)CCCCCCCCCCCCCCCCC(=O)O)C(=O)O)C(=O)N[C@@H](CC(N)=O)C(=O)N[C@@H]([C@@H](C)O)C(=O)N[C@@H](C)C(=O)N[C@@H]([C@@H](C)O)C(=O)N1)[C@@H](C)O)C(=O)N[C@@H](CC(C)C)C(=O)N1CCC[C@H]1C(=O)N1CCC[C@H]1C(=O)N[C@H](C(=O)N[C@@H](CC(N)=O)C(=O)N[C@H](C(=O)NCC(=O)N[C@@H](CO)C(=O)N[C@@H](Cc1c[nH]cn1)C(=O)N[C@H](C(=O)N[C@@H](Cc1ccc(O)cc1)C(N)=O)[C@@H](C)O)C(C)C)[C@@H](C)O` [Example 59, N-alpha-[(S)-4-Carboxy-4-(17-carboxyheptadecanoylamino)butyryl]-[Glu14,His17,His35]-pramlintide] ({C18 diacid-γGlu}-KCNTATCATQRLAEFLHHSSNNFGPILPPTNVGSHTY-NH2; disulfide 2-7), in data set [3] (pH 4.0), the “ThT pH 4.0 lag time (physical stability in fibrillogenesis assay)” value was above 45 h. Further, the “ThT pH 4.0 lag time” value in data set [3] (pH 4.0, ThT fibrillation assay) is above 45 h. Moreover, the “Food intake reduction 0-24 h 3 nmol/kg (%)” value with ad libitum fed rat (0-24 h) is listed as 59%. The “Food intake reduction 24-48 h 3 nmol/kg (%)” value in the data set on ad libitum fed rat (24-48 h) was found to be 27%.
